Results published in patent publication US8952024B2, “Herbicidal pyrimidone derivatives” (E I du Pont de Nemours and Company, priority 2009, dated 2015).
Like-named read-outs stand apart in the source and are kept apart here.

Assays:
Experiment in all cases: Test A pre-/postemergence plant response
Type in all cases: in vivo
[1] = system: barnyardgrass (Echinochloa crus-galli); settings: for pest or weed control at 125 g/ha / pest or weed control at 500 g/ha: Echinochloa crus-galli, 240 h
Outline: (§1)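 Injury scores (0, no effect; 100, complete control) come from visual comparison with untreated controls roughly ten days post-treatment. Test chemicals in a surfactant-containing non-phytotoxic solvent were applied as a directed soil spray preemergence and to one- to two-leaf seedlings postemergence.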

corn (Zea mays) = system: corn (Zea mays)
Outline: as §1

[2] = system: giant foxtail (Setaria faberii); settings: for pest or weed control at 125 g/ha / pest or weed control at 500 g/ha: Setaria faberi, 240 h
Outline: as §1

[3] = system: large crabgrass (Digitaria sanguinalis); settings: for pest or weed control at 125 g/ha / pest or weed control at 500 g/ha: Digitaria sanguinalis, 240 h
Outline: as §1

[4] = system: morningglory (Ipomoea spp.); settings: for pest or weed control at 125 g/ha / pest or weed control at 500 g/ha: Ipomoea, 240 h
Outline: as §1

[5] = system: pigweed (Amaranthus retroflexus); settings: for pest or weed control at 125 g/ha / pest or weed control at 500 g/ha: Amaranthus retroflexus, 240 h
Outline: as §1

[6] = system: velvetleaf (Abutilon theophrasti); settings: for pest or weed control at 125 g/ha / pest or weed control at 500 g/ha: Abutilon theophrasti, 240 h
Outline: as §1

[7] = system: wheat (Triticum aestivum); settings: for plant injury at 125 g/ha / plant injury at 500 g/ha: Triticum aestivum, 240 h
Outline: as §1

[8] = Postemergence, 125 g ai/ha, visual injury, 0 to 100 scale (0 no effect, 100 complete control), approx. ten days
[9] = Postemergence, 500 g ai/ha, 0 to 100 scale, 0 = no effect, 100 = complete control, approx. ten days
[10] = Preemergence, 125 g ai/ha, 0 to 100 scale, 0 = no effect, 100 = complete control
[11] = Preemergence, 500 g ai/ha, visual injury, 0 to 100 scale (0 no effect, 100 complete control), approx. ten days

O=C1CCCC(O)=C1C(=O)c1cnc(-c2ccccc2)n(Cc2ccccc2)c1=O [Compound 17, 5-[(2-hydroxy-6-oxo-1-cyclohexen-1-yl)carbonyl]-2-phenyl-3-(phenylmethyl)-4(3H)-pyrimidinone]
100%: pest or weed control at 500 g/ha ([3]; pre-emergence, Preemergence, 500 g ai/ha, visual injury, 0 to 100 scale (0 no effect, 100 complete control), approx. ten days, read-out: Plant response rating, Crabgrass, Large) | pest or weed control at 500 g/ha ([5]; post-emergence, Postemergence, 500 g ai/ha, 0 to 100 scale, 0 = no effect, 100 = complete control, approx. ten days, read-out: Plant response rating, Pigweed) | pest or weed control at 125 g/ha ([6]; post-emergence, Postemergence, 125 g ai/ha, visual injury, 0 to 100 scale (0 no effect, 100 complete control), approx. ten days, read-out: Velvetleaf plant response rating) | pest or weed control at 500 g/ha ([6]; post-emergence, Postemergence, 500 g ai/ha, 0 to 100 scale, 0 = no effect, 100 = complete control, approx. ten days, read-out: Plant response rating, Velvetleaf) | pest or weed control at 500 g/ha ([6]; pre-emergence, Preemergence, 500 g ai/ha, visual injury, 0 to 100 scale (0 no effect, 100 complete control), approx. ten days, read-out: Plant response rating, Velvetleaf)
0%: pest or weed control at 125 g/ha ([1]; pre-emergence, Preemergence, 125 g ai/ha, 0 to 100 scale, 0 = no effect, 100 = complete control, read-out: Plant response rating, Barnyardgrass) | plant injury at 125 g/ha (corn (Zea mays); Zea mays, post-emergence, 240 h, Postemergence, 125 g ai/ha, visual injury, 0 to 100 scale (0 no effect, 100 complete control), approx. ten days, read-out: Corn plant response rating) | Corn plant response rating (crop injury, 0 = no effect, 100 = complete kill) at 125 g/ha (corn (Zea mays); Zea mays, pre-emergence, 240 h, Preemergence, 125 g ai/ha, 0 to 100 scale, 0 = no effect, 100 = complete control) | Corn plant response rating (crop injury, 0 = no effect, 100 = complete kill) at 500 g/ha (corn (Zea mays); Zea mays, pre-emergence, 240 h, Preemergence, 500 g ai/ha, visual injury, 0 to 100 scale (0 no effect, 100 complete control), approx. ten days) | pest or weed control at 125 g/ha ([2]; post-emergence, Postemergence, 125 g ai/ha, visual injury, 0 to 100 scale (0 no effect, 100 complete control), approx. ten days, read-out: Foxtail, Giant plant response rating) | pest or weed control at 125 g/ha ([2]; pre-emergence, Preemergence, 125 g ai/ha, 0 to 100 scale, 0 = no effect, 100 = complete control, read-out: Plant response rating, Foxtail, Giant) | pest or weed control at 125 g/ha ([4]; pre-emergence, Preemergence, 125 g ai/ha, 0 to 100 scale, 0 = no effect, 100 = complete control, read-out: Plant response rating, Morningglory) | plant injury at 125 g/ha ([7]; post-emergence, Postemergence, 125 g ai/ha, visual injury, 0 to 100 scale (0 no effect, 100 complete control), approx. ten days, read-out: Wheat plant response rating) | plant injury at 125 g/ha ([7]; pre-emergence, Preemergence, 125 g ai/ha, 0 to 100 scale, 0 = no effect, 100 = complete control, read-out: Plant response rating, Wheat) | plant injury at 500 g/ha ([7]; pre-emergence, Preemergence, 500 g ai/ha, visual injury, 0 to 100 scale (0 no effect, 100 complete control), approx. ten days, read-out: Plant response rating, Wheat)
70%: pest or weed control at 500 g/ha ([1]; post-emergence, Postemergence, 500 g ai/ha, 0 to 100 scale, 0 = no effect, 100 = complete control, approx. ten days, read-out: Plant response rating, Barnyardgrass) | pest or weed control at 500 g/ha ([3]; post-emergence, Postemergence, 500 g ai/ha, 0 to 100 scale, 0 = no effect, 100 = complete control, approx. ten days, read-out: Plant response rating, Crabgrass, Large) | pest or weed control at 500 g/ha ([4]; post-emergence, Postemergence, 500 g ai/ha, 0 to 100 scale, 0 = no effect, 100 = complete control, approx. ten days, read-out: Plant response rating, Morningglory)
40%: pest or weed control at 125 g/ha ([6]; pre-emergence, Preemergence, 125 g ai/ha, 0 to 100 scale, 0 = no effect, 100 = complete control, read-out: Plant response rating, Velvetleaf)
90%: pest or weed control at 500 g/ha ([5]; pre-emergence, Preemergence, 500 g ai/ha, visual injury, 0 to 100 scale (0 no effect, 100 complete control), approx. ten days, read-out: Plant response rating, Pigweed)
20%: pest or weed control at 500 g/ha ([2]; pre-emergence, Preemergence, 500 g ai/ha, visual injury, 0 to 100 scale (0 no effect, 100 complete control), approx. ten days, read-out: Plant response rating, Foxtail, Giant) | pest or weed control at 125 g/ha ([3]; pre-emergence, Preemergence, 125 g ai/ha, 0 to 100 scale, 0 = no effect, 100 = complete control, read-out: Plant response rating, Crabgrass, Large) | pest or weed control at 125 g/ha ([4]; post-emergence, Postemergence, 125 g ai/ha, visual injury, 0 to 100 scale (0 no effect, 100 complete control), approx. ten days, read-out: Morningglory plant response rating)
10%: pest or weed control at 125 g/ha ([1]; post-emergence, Postemergence, 125 g ai/ha, visual injury, 0 to 100 scale (0 no effect, 100 complete control), approx. ten days, read-out: Barnyardgrass plant response rating) | Corn plant response rating (crop injury, 0 = no effect, 100 = complete kill) at 500 g/ha (corn (Zea mays); Zea mays, post-emergence, 240 h, Postemergence, 500 g ai/ha, 0 to 100 scale, 0 = no effect, 100 = complete control, approx. ten days) | pest or weed control at 125 g/ha ([3]; post-emergence, Postemergence, 125 g ai/ha, visual injury, 0 to 100 scale (0 no effect, 100 complete control), approx. ten days, read-out: Crabgrass, Large plant response rating) | pest or weed control at 500 g/ha ([4]; pre-emergence, Preemergence, 500 g ai/ha, visual injury, 0 to 100 scale (0 no effect, 100 complete control), approx. ten days, read-out: Plant response rating, Morningglory) | plant injury at 500 g/ha ([7]; post-emergence, Postemergence, 500 g ai/ha, 0 to 100 scale, 0 = no effect, 100 = complete control, approx. ten days, read-out: Plant response rating, Wheat)
80%: pest or weed control at 500 g/ha ([1]; pre-emergence, Preemergence, 500 g ai/ha, visual injury, 0 to 100 scale (0 no effect, 100 complete control), approx. ten days, read-out: Plant response rating, Barnyardgrass) | pest or weed control at 125 g/ha ([5]; post-emergence, Postemergence, 125 g ai/ha, visual injury, 0 to 100 scale (0 no effect, 100 complete control), approx. ten days, read-out: Pigweed plant response rating) | pest or weed control at 125 g/ha ([5]; pre-emergence, Preemergence, 125 g ai/ha, 0 to 100 scale, 0 = no effect, 100 = complete control, read-out: Plant response rating, Pigweed)
30%: pest or weed control at 500 g/ha ([2]; post-emergence, Postemergence, 500 g ai/ha, 0 to 100 scale, 0 = no effect, 100 = complete control, approx. ten days, read-out: Plant response rating, Foxtail, Giant)

Cc1ccc(-n2c(-c3ccccc3)ncc(C(=O)C3=C(O)CCCC3=O)c2=O)c(C)c1 [Compound 28]
20: Plant response rating, Crabgrass, Large [3, 10] | Plant response rating, Morningglory [4, 10] | Plant response rating, Velvetleaf [6, 10]
30: Barnyardgrass plant response rating [1, 8] | Foxtail, Giant plant response rating [2, 8] | Plant response rating, Foxtail, Giant [2, 11]
90: Plant response rating, Barnyardgrass [1, 9]
60: Plant response rating, Crabgrass, Large [3, 11]
40: Crabgrass, Large plant response rating [3, 8]
100: Pigweed plant response rating [5, 8] | Plant response rating, Pigweed [5, 9] | Plant response rating, Pigweed [5, 11] | Velvetleaf plant response rating [6, 8] | Plant response rating, Velvetleaf [6, 9]
0: Corn plant response rating (corn (Zea mays); [8]) | Plant response rating, Corn (corn (Zea mays); [9]) | Plant response rating, Corn (corn (Zea mays); [10]) | Plant response rating, Corn (corn (Zea mays); [11]) | Plant response rating, Foxtail, Giant [2, 10] | Morningglory plant response rating [4, 8] | Wheat plant response rating [7, 8] | Plant response rating, Wheat [7, 9] | Plant response rating, Wheat [7, 10] | Plant response rating, Wheat [7, 11]
10: Plant response rating, Barnyardgrass [1, 10] | Plant response rating, Morningglory [4, 9]
70: Plant response rating, Barnyardgrass [1, 11]
80: Plant response rating, Foxtail, Giant [2, 9] | Plant response rating, Crabgrass, Large [3, 9] | Plant response rating, Morningglory [4, 11] | Plant response rating, Pigweed [5, 10] | Plant response rating, Velvetleaf [6, 11]
